Patent US11013726B2 (Arbutus Biopharma Corporation, priority 2016, dated 2021)

System: HBsAg
Assay: HBsAg assay
Assay type: cell-based, hepatitis B virus
Conditions: Hepatitis B virus, HepG2.2.15, 144 h, read-out: sAg EC50, μM, HepG2.2.15 cells, day 6
Protocol: Inhibition of HBsAg was determined in HepG2.2.15 cells. Cells were maintained in culture medium containing 10% fetal calf serum, […], Glutamine, penicillin/streptomycin. Cells were seeded in 96-well collagen-coated plate at a density of 30,000 cells/well. Serially diluted compounds were added to cells next day at the final DMSO concentration of 0.5%. Cells were incubated with compounds for 2-3 days, after which medium was removed. Fresh medium containing compounds was added to cells for additional 3-4 days. At day 6 after exposure of compounds, supernatant was collected, the HBsAg immunoassay (microplate-based chemiluminescence immunoassay kits, CLIA, Autobio Diagnosics Co., Zhengzhou, China, Catalog # CL0310-2) was used to determine the level of HBsAg according to manufactory instruction. Dose-response curves were generated and the EC50 value (effective concentrations that achieved 50% inhibitory effect) were determined using XLfit software. In addition, cells were seeded at a density of 5,000 cells/well for determination of cell viability in the presence and absence of compounds by using CellTiter-Glo reagent (Promega). Tables 1-3 show EC50 values obtained by the HBsAg assay for selected compounds.

Row | SMILES | EC50 [µM]
1 | COc1nc2c(cc1Cl)-c1cc(=O)c(C(=O)O)cn1C(C(C)C)CO2 (stereo not shown) [Example 104, 2-Chloro-7-isopropyl-3-methoxy-11-oxo-6,7-dihydro-11H-dipyrido[1,2-d:3′,2′-f][1,4]oxazepine-10-carboxylic acid] | 24.2
2 | COC1COc2cc3c(cc2OC1)-c1cc(=O)c(C(=O)O)cn1C(C(C)(C)C)C3 (stereo not shown) [Example 102, 6-(Tert-butyl)-11-methoxy-2-oxo-6,7,11,12-tetrahydro-2H,10H-[1,4]dioxepino[2,3-g]pyrido[2,1-a]isoquinoline-3-carboxylic acid] | 0.18
3 | CC(C)[C@@H]1COc2cc(OCCCO)c(Cl)cc2-c2cc(=O)c(C(=O)O)cn21 [Example 36, (R)-2-Chloro-3-(3-hydroxypropoxy)-7-isopropyl-11-oxo-6,7-dihydro-11H-benzo[f]pyrido[1,2-d][1,4]oxazepine-10-carboxylic acid] | 0.019
4 | COCCCOc1cc2c(cc1C)-c1cc(=O)c(C(=O)O)cn1[C@H](C(C)C)CO2 [Example 46, (R)-7-Isopropyl-3-(3-methoxypropoxy)-2-methyl-11-oxo-6,7-dihydro-11H-benzo[f]pyrido[1,2-d][1,4]oxazepine-10-carboxylic acid] | 0.039
5 | CCOCCOc1cc2c(cc1CC)-c1cc(=O)c(C(=O)O)cn1[C@H](C(C)C)CO2 [Example 57, (R)-3-(2-Ethoxyethoxy)-2-ethyl-7-isopropyl-11-oxo-6,7-dihydro-111H-benzo[f]pyrido[1,2-d][1,4]oxazepine-10-carboxylic acid] | 0.034
6 | COc1cc2c(cc1Cl)-c1cc3noc(=O)c-3cn1C(C(C)C)CO2 (stereo not shown) [Example 151, 2-Chloro-7-isopropyl-3-methoxy-6,7-dihydro-10H-benzo[f]isoxazolo[3′,4′:4,5]pyrido[1,2-d][1,4]oxazepin-10-one] | 13
7 | COCCCOc1cc2c(nc1OC)-c1cc(=NN)c(C(=O)NN)cn1[C@H](C(C)C)C2 [Example 152, (6S,10)-10-Hydrazinylidene-6-isopropyl-2-methoxy-3-(3-methoxypropoxy)-5H,6H-pyrido[1,2-h]1,7-naphthyridine-9-carbohydrazide] | 0.03
8 | COCCCOc1cc2c(nc1Cl)-c1cc(=O)c(C(=O)O)cn1C1(CO2)CC(C)(C)C1 [Example 72, 2′-Chloro-3′-(3-methoxypropoxy)-3,3-dimethyl-11′-oxo-6′H,11′H-spiro[cyclobutane-1,7′-dipyrido[1,2-d:2′,3′-f][1,4]oxazepine]-10′-carboxylic acid] | 0.18
9 | COc1cc2c(nc1Cl)-c1cc(=O)c(C(=O)O)cn1[C@H](C(C)C)CO2 [Example 75, (R)-2-Chloro-7-isopropyl-3-methoxy-11-oxo-6,7-dihydro-11H-dipyrido[1,2-d:2′,3′-f][1,4]oxazepine-10-carboxylic acid] | 0.026
10 | COCCCOc1cc2c(cc1Cl)-c1cc(=O)c(OC)cn1[C@H](C(C)C)CO2 [Example 139, (R)-2-Chloro-7-isopropyl-10-methoxy-3-(3-methoxypropoxy)-6,7-dihydro-11H-benzo[f]pyrido[1,2-d][1,4]oxazepin-11-one] | 14
11 | COCCCOc1cc2c(nc1OC)-c1c(F)c(=O)c(C(=O)O)cn1[C@H](C(C)C)C2 [Example 26, (S)-11-Fluoro-6-isopropyl-2-methoxy-3-(3-methoxypropoxy)-10-oxo-5,10-dihydro-6H-pyrido[1,2-h][1,7]naphthyridine-9-carboxylic acid] | 0.002
12 | COCCCOc1cc2c(cc1Cl)-c1cc(=O)c(I)cn1C(C(C)(C)C)C2 (stereo not shown) [Example 131, 6-Tert-butyl-10-chloro-3-iodo-9-(3-methoxypropoxy)-6H,7H-pyrido[2,1-a]isoquinolin-2-one] | 2.4

Same assay, conditions: read-out: sAg EC50; HepG2.2.15 cells, day 6

Row | SMILES | EC50 [µM]
13 | COCCCOc1cc2c(nc1OC)-c1cc(=O)c(C(=O)O)cn1C(C)(C(C)C)C2 (single isomer, unassigned) [Example 157, 6-Isopropyl-2-methoxy-3-(3-methoxypropoxy)-6-methyl-10-oxo-5,10-dihydro-6H-pyrido[1,2-h][1,7]naphthyridine-9-carboxylic acid] | 0.11
